# Assay results as given in ChEMBL document CHEMBL1909294, “Translating clinical findings into knowledge in drug safety evaluation--drug induced liver injury prediction system (DILIps)” (PLoS Comput Biol, 2011).
# *1 amine or outer side, *2 acyl side, *3 side chain or, on linkers, in order; H or OH if unused. Where a SMILES comes first, the peptide text is derived from it. Bridges are numbered along the chain shown (N, C = ends). [ ]: non-standard residue; d: D form. The star is where a group is joined. hTyr(3S-OH,4S-OH,3'-OSO3H) = N[C@H](C(=O)O)[C@H](O)[C@@H](O)c1ccc(O)c(OS(=O)(=O)O)c1; Orn(4R-OH,5R-OH) = O=C([C@H](C[C@@H](O)[C@@H](O)N[*:3])N[*:1])[*:2]; Pro(3S-OH,4S-Me) = C[C@H]1CN[C@H](C(=O)O)[C@H]1O; X1 = CCCCCOc1ccc(-c2cc(-c3ccc(C(=O)*)cc3)no2)cc1; Gln(3R-OH) = NC(=O)C[C@@H](O)[C@H](N)C(=O)O; Hyp = O=C(O)[C@@H]1C[C@@H](O)CN1
# Experiments:
# Hepatotoxicity [1] = tested on: Hepatotoxicity;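 on HepSE Combined Scores: combined hepatic side effect score as listed in the training data of the Drug Induced Liver Injury Prediction System (DILIps)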;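 on HepSE cholecystitis: Cholecystitis-related hepatic side effect score drawn from the DILIps (drug-induced liver injury prediction) training data set; call rule not given here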;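 on HepSE cirrhosis: cirrhosis hepatic side effect score taken from the DILIps (drug-induced liver injury prediction) training set; call rule not given here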; on HepSE hepatic failure: call rule not given here;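 on HepSE hepatitis: Hepatitis-related hepatic side effect score taken from the training data of DILIps, a prediction system for drug-induced liver injury; call rule not given here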;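 on HepSE hepatomegaly: hepatic side effect score for hepatomegaly, taken from the training set of the DILIps drug-induced liver injury prediction system; call rule not given here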;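 on HepSE liver function tests abnormal: hepatic side effect score taken from the DILIps (drug-induced liver injury prediction system) training data, here covering abnormal liver function test findings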
# Hepatotoxicity [2] = tested on: Hepatotoxicity; remark: listed apart in the source;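 on HepSE Combined Scores: combined hepatic side effect score as listed in the training data of the Drug Induced Liver Injury Prediction System (DILIps)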;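 on HepSE cholecystitis: Cholecystitis-related hepatic side effect score drawn from the DILIps (drug-induced liver injury prediction) training data set; call rule not given here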;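 on HepSE cirrhosis: cirrhosis hepatic side effect score taken from the DILIps (drug-induced liver injury prediction) training set; call rule not given here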; on HepSE hepatic failure: call rule not given here;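 on HepSE hepatitis: Hepatitis-related hepatic side effect score taken from the training data of DILIps, a prediction system for drug-induced liver injury; call rule not given here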;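 on HepSE hepatomegaly: hepatic side effect score for hepatomegaly, taken from the training set of the DILIps drug-induced liver injury prediction system; call rule not given here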;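 on HepSE liver function tests abnormal: hepatic side effect score taken from the DILIps (drug-induced liver injury prediction system) training data, here covering abnormal liver function test findings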
# Hepatotoxicity [3] = tested on: Hepatotoxicity; remark: listed apart in the source;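 on HepSE Combined Scores: combined hepatic side effect score as listed in the training data of the Drug Induced Liver Injury Prediction System (DILIps)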;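 on HepSE cholecystitis: Cholecystitis-related hepatic side effect score drawn from the DILIps (drug-induced liver injury prediction) training data set; call rule not given here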;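 on HepSE cirrhosis: cirrhosis hepatic side effect score taken from the DILIps (drug-induced liver injury prediction) training set; call rule not given here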; on HepSE hepatic failure: call rule not given here;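 on HepSE hepatitis: Hepatitis-related hepatic side effect score taken from the training data of DILIps, a prediction system for drug-induced liver injury; call rule not given here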;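 on HepSE liver function tests abnormal: hepatic side effect score taken from the DILIps (drug-induced liver injury prediction system) training data, here covering abnormal liver function test findings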
# Hepatotoxicity [4] = tested on: Hepatotoxicity; remark: listed apart in the source;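 on HepSE Combined Scores: combined hepatic side effect score as listed in the training data of the Drug Induced Liver Injury Prediction System (DILIps)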;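 on HepSE cholecystitis: Cholecystitis-related hepatic side effect score drawn from the DILIps (drug-induced liver injury prediction) training data set; call rule not given here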;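 on HepSE cirrhosis: cirrhosis hepatic side effect score taken from the DILIps (drug-induced liver injury prediction) training set; call rule not given here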; on HepSE hepatic failure: call rule not given here;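 on HepSE hepatitis: Hepatitis-related hepatic side effect score taken from the training data of DILIps, a prediction system for drug-induced liver injury; call rule not given here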;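 on HepSE liver function tests abnormal: hepatic side effect score taken from the DILIps (drug-induced liver injury prediction system) training data, here covering abnormal liver function test findings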
# Hepatotoxicity [5] = tested on: Hepatotoxicity; remark: listed apart in the source; on HepSE hepatic failure: call rule not given here
# Hepatotoxicity [6] = tested on: Hepatotoxicity; remark: listed apart in the source; on HepSE hepatic failure: call rule not given here
# Hepatotoxicity [7] = tested on: Hepatotoxicity; remark: listed apart in the source
# Hepatotoxicity [8] = tested on: Hepatotoxicity; remark: listed apart in the source
# Hepatotoxicity [9] = tested on: Hepatotoxicity; remark: listed apart in the source
# Hepatotoxicity [10] = tested on: Hepatotoxicity; remark: listed apart in the source
# Hepatotoxicity [11] = tested on: Hepatotoxicity; remark: listed apart in the source
# Hepatotoxicity [12] = tested on: Hepatotoxicity; remark: listed apart in the source
# Hepatotoxicity [13] = tested on: Hepatotoxicity; remark: listed apart in the source
# Hepatotoxicity [14] = tested on: Hepatotoxicity; remark: listed apart in the source
SMILES,HepSE_hepatic failure (Hepatotoxicity [1]),HepSE_liver function tests abnormal (Hepatotoxicity [2]),HepSE_cirrhosis (Hepatotoxicity [3]),HepSE_hepatitis (Hepatotoxicity [4]),HepSE_Combined Scores (Hepatotoxicity [5]),HepSE_cholecystitis (Hepatotoxicity [6]),HepSE_hepatomegaly (Hepatotoxicity [7]),HepSE_bilirubinemia (Hepatotoxicity [8]),HepSE_liver fatty (Hepatotoxicity [9]),HepSE_elevated liver function tests (Hepatotoxicity [10]),HepSE_liver disease (Hepatotoxicity [11]),HepSE_jaundice (Hepatotoxicity [12]),HepSE_cholelithiasis (Hepatotoxicity [13]),HepSE_hepatic necrosis (Hepatotoxicity [14]),other results
CC(C)CN(C[C@@H](O)[C@H](Cc1ccccc1)NC(=O)O[C@H]1CCOC1)S(=O)(=O)c1ccc(N)cc1,0,0,0,0,0,0,0,0,0,0,0,0,0,0,–
CC(C)=CCN1CC[C@]2(C)c3cc(O)ccc3C[C@H]1[C@H]2C [(+)-PENTAZOCINE],0,0,0,0,0,0,0,0,0,0,0,0,0,0,–
CN1CCc2cccc3c2[C@H]1Cc1ccc(O)c(O)c1-3 [APOMORPHINE],0,0,0,0,0,0,0,0,0,0,0,0,0,0,–
CC1COc2c(N3CCN(C)CC3)c(F)cc3c(=O)c(C(=O)O)cn1c23 (stereo not drawn) [OFLOXACIN],1,0,0,1,6,1,0,0,0,0,0,1,1,1,–
Clc1ccc(COC(Cn2ccnc2)c2ccc(Cl)cc2Cl)c(Cl)c1 (stereo not drawn) [MICONAZOLE],0,0,0,0,0,0,0,0,0,0,0,0,0,0,–
Cc1nc2n(c(=O)c1CCN1CCC(c3noc4cc(F)ccc34)CC1)CCCC2O (stereo not drawn) [PALIPERIDONE],0,0,0,0,0,0,0,0,0,0,0,0,0,0,–
CN[C@H]1CC[C@@H](c2ccc(Cl)c(Cl)c2)c2ccccc21 [SERTRALINE],–,–,–,–,–,–,–,–,–,–,–,–,–,–,HepSE_hepatic failure (Hepatotoxicity [1]; Liver): 1; HepSE_liver function tests abnormal (Hepatotoxicity [2]; Liver): 0; HepSE_cirrhosis (Hepatotoxicity [3]; Liver): 0; HepSE_hepatitis (Hepatotoxicity [4]; Liver): 1; HepSE_Combined Scores (Hepatotoxicity [5]; Liver): 4; HepSE_cholecystitis (Hepatotoxicity [6]; Liver): 0; HepSE_hepatomegaly (Hepatotoxicity [7]; Liver): 1; HepSE_bilirubinemia (Hepatotoxicity [8]; Liver): 0; HepSE_liver fatty (Hepatotoxicity [9]; Liver): 0; HepSE_elevated liver function tests (Hepatotoxicity [10]; Liver): 0; HepSE_liver disease (Hepatotoxicity [11]; Liver): 0; HepSE_jaundice (Hepatotoxicity [12]; Liver): 1; HepSE_cholelithiasis (Hepatotoxicity [13]; Liver): 0; HepSE_hepatic necrosis (Hepatotoxicity [14]; Liver): 0
CC1(C)C(C=C(Cl)Cl)C1C(=O)OCc1cccc(Oc2ccccc2)c1 (stereo not drawn) [PERMETHRIN],0,0,0,0,0,0,0,0,0,0,0,0,0,0,–
Cc1ccc(S(=O)(=O)NC(=O)NN2CCCCCC2)cc1 [TOLAZAMIDE],0,0,0,0,1,0,0,0,0,0,0,1,0,0,–
O=C(c1ccccc1)c1ccc2n1CCC2C(=O)O (stereo not drawn) [KETOROLAC],1,0,0,1,3,0,0,0,0,0,0,1,0,0,–
O=C(O)c1cc(=O)c2c(OCC(O)COc3cccc4oc(C(=O)O)cc(=O)c34)cccc2o1 [CROMOLYN],0,0,0,0,1,0,0,0,0,0,1,0,0,0,–
CC1(C)O[C@@H]2C[C@H]3[C@@H]4C[C@H](F)C5=CC(=O)C=C[C@]5(C)[C@H]4[C@@H](O)C[C@]3(C)[C@]2(C(=O)CO)O1 [FLUNISOLIDE],0,0,0,0,0,0,0,0,0,0,0,0,0,0,–
CN1CCCCC1CCN1c2ccccc2Sc2ccc([S+](C)[O-])cc21 (stereo not drawn) [MESORIDAZINE],–,–,–,–,–,–,–,–,–,–,–,–,–,–,HepSE_hepatic failure (Hepatotoxicity [1]; Liver): 0; HepSE_liver function tests abnormal (Hepatotoxicity [2]; Liver): 0; HepSE_cirrhosis (Hepatotoxicity [3]; Liver): 0; HepSE_hepatitis (Hepatotoxicity [4]; Liver): 0; HepSE_Combined Scores (Hepatotoxicity [5]; Liver): 1; HepSE_cholecystitis (Hepatotoxicity [6]; Liver): 0; HepSE_hepatomegaly (Hepatotoxicity [7]; Liver): 0; HepSE_bilirubinemia (Hepatotoxicity [8]; Liver): 0; HepSE_liver fatty (Hepatotoxicity [9]; Liver): 0; HepSE_elevated liver function tests (Hepatotoxicity [10]; Liver): 0; HepSE_liver disease (Hepatotoxicity [11]; Liver): 0; HepSE_jaundice (Hepatotoxicity [12]; Liver): 1; HepSE_cholelithiasis (Hepatotoxicity [13]; Liver): 0; HepSE_hepatic necrosis (Hepatotoxicity [14]; Liver): 0
Clc1cccc(Cl)c1N=C1NCCN1 [CLONIDINE],–,–,–,–,–,–,–,–,–,–,–,–,–,–,HepSE_hepatic failure (Hepatotoxicity [1]; Liver): 0; HepSE_liver function tests abnormal (Hepatotoxicity [2]; Liver): 0; HepSE_cirrhosis (Hepatotoxicity [3]; Liver): 0; HepSE_hepatitis (Hepatotoxicity [4]; Liver): 1; HepSE_Combined Scores (Hepatotoxicity [5]; Liver): 1; HepSE_cholecystitis (Hepatotoxicity [6]; Liver): 0; HepSE_hepatomegaly (Hepatotoxicity [7]; Liver): 0; HepSE_bilirubinemia (Hepatotoxicity [8]; Liver): 0; HepSE_liver fatty (Hepatotoxicity [9]; Liver): 0; HepSE_elevated liver function tests (Hepatotoxicity [10]; Liver): 0; HepSE_liver disease (Hepatotoxicity [11]; Liver): 0; HepSE_jaundice (Hepatotoxicity [12]; Liver): 0; HepSE_cholelithiasis (Hepatotoxicity [13]; Liver): 0; HepSE_hepatic necrosis (Hepatotoxicity [14]; Liver): 0
CNCC[C@H](Oc1cccc2ccccc12)c1cccs1 [DULOXETINE],–,–,–,–,–,–,–,–,–,–,–,–,–,–,HepSE_hepatic failure (Hepatotoxicity [1]; Liver): 0; HepSE_liver function tests abnormal (Hepatotoxicity [2]; Liver): 0; HepSE_cirrhosis (Hepatotoxicity [3]; Liver): 0; HepSE_hepatitis (Hepatotoxicity [4]; Liver): 1; HepSE_Combined Scores (Hepatotoxicity [5]; Liver): 3; HepSE_cholecystitis (Hepatotoxicity [6]; Liver): 0; HepSE_hepatomegaly (Hepatotoxicity [7]; Liver): 0; HepSE_bilirubinemia (Hepatotoxicity [8]; Liver): 0; HepSE_liver fatty (Hepatotoxicity [9]; Liver): 1; HepSE_elevated liver function tests (Hepatotoxicity [10]; Liver): 0; HepSE_liver disease (Hepatotoxicity [11]; Liver): 0; HepSE_jaundice (Hepatotoxicity [12]; Liver): 1; HepSE_cholelithiasis (Hepatotoxicity [13]; Liver): 0; HepSE_hepatic necrosis (Hepatotoxicity [14]; Liver): 0
COc1cc2nc(N3CCN(C(=O)C4CCCO4)CC3)nc(N)c2cc1OC (stereo not drawn) [TERAZOSIN],0,0,0,0,1,0,0,0,0,0,0,1,0,0,–
"CCCCCOc1ccc(-c2cc(-c3ccc(C(=O)N[C@H]4C[C@@H](O)[C@@H](O)NC(=O)[C@@H]5[C@@H](O)[C@@H](C)CN5C(=O)[C@H]([C@H](O)CC(N)=O)NC(=O)[C@H]([C@H](O)[C@@H](O)c5ccc(O)c(OS(=O)(=O)O)c5)NC(=O)[C@@H]5C[C@@H](O)CN5C(=O)[C@H]([C@@H](C)O)NC4=O)cc3)no2)cc1 [MICAFUNGIN] (X1-[Orn(4R-OH,5R-OH)]T[Hyp][hTyr(3S-OH,4S-OH,3'-OSO3H)][Gln(3R-OH)][Pro(3S-OH,4S-Me)]; lactam 1-C)",1,1,0,0,6,0,1,1,0,0,1,1,0,0,–
